A word on the pIC50: it is the IC50 on a negative log10 scale, so that one unit is a factor of ten. A high value points to a low IC50.

Experimental findings from ChEMBL document CHEMBL3352398, “2-(2-Bromophenyl)-formononetin and 2-heptyl-formononetin are PPARγ partial agonists and reduce lipid accumulation in 3T3-L1 adipocytes” (Bioorg Med Chem, 2014) are described below.

Structures are written as SMILES. pIC50: −log10 of the molar value. Activity calls are given as the source filed them. No cut-off for these calls is given here.

The subject of data set [1] is 3T3-L1. Nature of the data set: Reduction of adipogenesis in mouse 3T3L1 cells assessed as decrease in lipid accumulation measured on day 8 by fluorescence-based AdipoRed assay. The class given is functional, cell-based.
Data set [2] concerns 3T3-L1. Briefly: Reduction of adipogenesis in mouse 3T3L1 cells assessed as decrease in lipid accumulation measured on day 8 by oil red o assay. It is filed as functional, cell-based.
A short description of data set [3]: Cytotoxicity against mouse 3T3L1 cells assessed as effect on lactate dehydrogenase release at 5 to 50 uM measured on day 2. It is filed as cell-based. The settings on record: 3t3-l1, 50 µM.
Data set [4] relates to 3T3-L1. Nature of the data set: Effect on adipogenesis in mouse 3T3L1 cells assessed as reduction in Cebpa gene expression at 5 to 50 uM after 8 days by real time quantitative PCR analysis relative to vehicle-treated control. The class given is functional, cell-based.
Data set [5] concerns 3T3-L1. Nature of the data set: Effect on adipogenesis in mouse 3T3L1 cells assessed as reduction in Adipoq gene expression at 5 to 50 uM after 8 days by real time quantitative PCR analysis relative to vehicle-treated control. It is filed as functional, cell-based.
Data set [6] deals with 3T3-L1. Briefly: Effect on adipogenesis in mouse 3T3L1 cells assessed as reduction in Fabp4 gene expression at 5 to 50 uM after 4 days by real time quantitative PCR analysis relative to vehicle-treated control. The class given is functional, cell-based.
Data set [7] has as its system 3T3-L1. Nature of the data set: Effect on adipogenesis in mouse 3T3L1 cells assessed as reduction in Adipoq gene expression at 5 to 50 uM after 4 days by real time quantitative PCR analysis relative to vehicle-treated control. It is filed as functional, cell-based.
For data set [8], the system named is 3T3-L1. Nature of the data set: Effect on adipogenesis in mouse 3T3L1 cells in DI media assessed as increase in fat-laden mature adipocytes at <25 uM after 8 days by oil red o assay. It is filed as functional, cell-based.
Data set [9] can be described thus: Cytotoxicity against mouse 3T3L1 cells assessed as LDH release at 50 uM after 48 hrs. It is filed as cell-based. The following applies: 3t3-l1, 48 h. A general note: LDH in the medium is a marker of cell lysis.
Data set [10] concerns 3T3-L1. Briefly: Reduction in lipogenesis in mouse 3T3L1 cells assessed as down regulation of Fasn gene exression by real time-qPCR analysis. It is filed as functional, cell-based. For orientation: Real-time PCR tracks product formation cycle by cycle.
For data set [11], the target named is T1, Peroxisome proliferator-activated receptor gamma (Homo sapiens) (UniProt P37231).
T1 sequence (whole entry): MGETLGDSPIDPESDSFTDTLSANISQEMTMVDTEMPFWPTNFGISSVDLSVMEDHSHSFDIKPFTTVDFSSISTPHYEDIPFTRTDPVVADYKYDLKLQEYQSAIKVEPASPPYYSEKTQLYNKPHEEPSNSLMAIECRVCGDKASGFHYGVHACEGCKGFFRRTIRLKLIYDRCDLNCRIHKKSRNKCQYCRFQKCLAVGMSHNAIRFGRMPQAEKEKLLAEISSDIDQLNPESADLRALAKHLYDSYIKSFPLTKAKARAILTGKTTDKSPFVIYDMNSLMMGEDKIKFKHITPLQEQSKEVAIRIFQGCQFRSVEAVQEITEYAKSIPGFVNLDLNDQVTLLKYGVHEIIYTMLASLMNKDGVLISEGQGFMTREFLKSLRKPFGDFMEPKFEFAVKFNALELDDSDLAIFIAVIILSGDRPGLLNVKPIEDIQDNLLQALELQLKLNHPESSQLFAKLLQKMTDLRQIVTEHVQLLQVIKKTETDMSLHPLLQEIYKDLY
Nature of the data set: Competitive binding to human GST-tagged PPAR-gamma at <=100 uM by TR-FRET assay.

Data set [12] addresses T2, Peroxisome proliferator-activated receptor gamma (Homo sapiens, UniProt P37231).
T2 sequence (P37231 whole entry): T1 sequence (whole entry)
Briefly: Competitive binding to human GST-tagged PPAR-gamma by TR-FRET assay.

Data set [13] concerns the target T3, Peroxisome proliferator-activated receptor gamma (Mus musculus) (UniProt P37238).
T3 sequence (whole entry): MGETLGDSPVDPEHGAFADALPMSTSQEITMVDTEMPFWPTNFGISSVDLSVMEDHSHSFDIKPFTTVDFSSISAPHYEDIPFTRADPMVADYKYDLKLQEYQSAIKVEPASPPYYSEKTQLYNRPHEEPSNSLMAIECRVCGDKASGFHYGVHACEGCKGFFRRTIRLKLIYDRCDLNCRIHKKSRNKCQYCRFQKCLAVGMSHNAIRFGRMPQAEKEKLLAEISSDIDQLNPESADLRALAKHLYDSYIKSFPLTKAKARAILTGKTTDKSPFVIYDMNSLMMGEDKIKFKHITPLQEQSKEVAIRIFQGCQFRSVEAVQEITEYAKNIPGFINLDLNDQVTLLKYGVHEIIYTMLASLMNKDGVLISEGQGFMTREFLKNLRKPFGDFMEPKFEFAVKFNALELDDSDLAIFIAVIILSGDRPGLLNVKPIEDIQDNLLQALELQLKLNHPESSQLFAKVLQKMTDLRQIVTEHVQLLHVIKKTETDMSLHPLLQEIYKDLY
Nature of the data set: Agonist activity at PPAR-gamma in mouse embryo fibroblast by transactivation assay relative to rosiglitazone.

Data set [14] is described as follows: Effect on adipogenesis in mature mouse 3T3L1 cells assessed as upregulation of Sirt1 gene expression. The settings on record: 3T3-L1. It is filed as functional, cell-based.

As for `CCCCCCCc1oc2cc(O)ccc2c(=O)c1-c1ccc(OC)cc1`, the Activity result in data set [1] was “Dose-dependent effect”; in data set [2] it was “Dose-dependent effect”; in data set [3], “Non-toxic”; in [4], “Dose-dependent effect”; in data set [5], “Dose-dependent effect”; in data set [7], “Dose-dependent effect”. The Activity result was “Toxic” in data set [9] and “Dose-dependent effect” in data set [13]. The result in [6] and in [14] was inactive. The result in data set [8], in [10] and in data set [11] was Active. The pIC50 in [12] is 5.30.
